Like-named read-outs stand apart in the source and are kept apart here.
Legend:
[1] = system: TNFα secretion from LPS stimulated white blood cells from human buffy coat; experiment: TNFα secretion assay, LPS stimulation; settings: Homo sapiens, read-out: percent inhibition of TNFα secretion, LPS; for inhibition at 0.008 µM: Prednisolone 0.008 μM; for inhibition at 0.5 µM: Prednisolone 0.5 μM; for inhibition at 1 µM: Prednisolone 1 μM
Description: (§1) Various concentrations of each test compound were added at the time of stimulation. […] After the plate was washed with 0.1% Tween 20/PBS, an HRP-luminescent substrate was added to each well and light intensity measured using a LJL Analyst plate luminometer.

[2] = system: TNFα secretion from PMA/ionomycin stimulated white blood cells from human buffy coat; experiment: TNFα secretion assay, PMA/ionomycin stimulation
Description: as §1

[3] = Amoxapine μM r5-r13: 0,0.25,0.5,1,2,4,8,16,32
[4] = Clomipramine μM r5-r13: 0,0.45,0.89,1.8,3.6,7.1,14,28,57
[5] = Desipramine μM r5-r13: 0,0.5,1,2,4,8,16,32,64
[6] = Fluoxetine μM r5-r13: 0,0.23,0.45,0.9,1.8,3.6,7.2,14,29
[7] = Loxapine μM r5-r13: 0,0.35,0.7,1.4,2.8,5.6,11,22,45
[8] = Norclozapine μM r5-r13: 0,0.21,0.41,0.83,1.7,3.3,6.6,13,27
[9] = Nortriptyline μM r5-r13: 0,0.52,1,2.1,4.2,8.3,17,33,67

## C[C@]12C=CC(=O)C=C1CC[C@@H]1[C@@H]2[C@@H](O)C[C@@]2(C)[C@H]1CC[C@]2(O)C(=O)CO [Prednisolone, prednisolone]
[1]; [3]
  inhibition at 0.008 µM: 3.67%
  inhibition at 0.5 µM: 59.1%
  inhibition at 1 µM: 66.2%
[1]; [4]
  inhibition at 0.008 µM: 2.55%
  inhibition at 0.5 µM: 64.8%
  inhibition at 1 µM: 66.9%
[1]; [5]
  inhibition at 0.008 µM: 4.87%
  inhibition at 0.5 µM: 57.6%
  inhibition at 1 µM: 59.1%
[1]; [6]
  inhibition at 0.008 µM: 1.18%
  inhibition at 0.5 µM: 63.9%
  inhibition at 1 µM: 71%
[1]; [7]
  inhibition at 0.008 µM: 4.44%
  inhibition at 0.5 µM: 68.8%
  inhibition at 1 µM: 68.7%
[1]; [8]
  inhibition at 0.008 µM: 18%
  inhibition at 0.5 µM: 79%
  inhibition at 1 µM: 83%
[1]; [9]
  inhibition at 0.008 µM: 0.348%
  inhibition at 0.5 µM: 51.9%
  inhibition at 1 µM: 53.4%
[2]; read-out: inhibition of TNFα secretion, Prednisolone 10 nM, Desipramine nM: 0, 50, 200, 799, 3197, 13000
  inhibition at 0.01 µM: -0.66%
[2]; read-out: inhibition of TNFα secretion, Prednisolone 10 nM, Imipramine nM: 0, 99, 394, 1578, 6311, 25000
  inhibition at 0.01 µM: 0.037%
[2]; read-out: inhibition of TNFα secretion, Prednisolone 10 nM, Nortriptyline nM: 0, 52, 208, 834, 3336, 13000
  inhibition at 0.01 µM: 4.27%
[2]; read-out: inhibition of TNFα secretion, Prednisolone 10 nM, Protriptyline nM: 0, 52, 208, 834, 3336, 13000
  inhibition at 0.01 µM: 0.0342%
[2]; read-out: inhibition of TNFα secretion, Prednisolone 42 nM, Desipramine nM: 0, 50, 200, 799, 3197, 13000
  inhibition at […]: 3.62%
[2]; read-out: inhibition of TNFα secretion, Prednisolone 42 nM, Imipramine nM: 0, 99, 394, 1578, 6311, 25000
  inhibition at […]: 5.58%
[2]; read-out: inhibition of TNFα secretion, Prednisolone 42 nM, Nortriptyline nM: 0, 52, 208, 834, 3336, 13000
  inhibition at […]: 7.41%
[2]; read-out: inhibition of TNFα secretion, Prednisolone 2656 nM, Desipramine nM: 0, 50, 200, 799, 3197, 13000
  inhibition at 2.656 µM: 38.8%
[2]; read-out: inhibition of TNFα secretion, Prednisolone 2656 nM, Imipramine nM: 0, 99, 394, 1578, 6311, 25000
  inhibition at 2.656 µM: 40.5%
[2]; read-out: inhibition of TNFα secretion, Prednisolone 2656 nM, Nortriptyline nM: 0, 52, 208, 834, 3336, 13000
  inhibition at 2.656 µM: 38.3%
[2]; read-out: inhibition of TNFα secretion, Prednisolone 2656 nM, Protriptyline nM: 0, 52, 208, 834, 3336, 13000
  inhibition at 2.656 µM: 45.2%
[2]; read-out: percent inhibition of TNFα secretion, PMA/ionomycin, Prednisolone 0.008 μM, Amoxapine μM r5-r13: 0,0.25,0.5,1,2,4,8,16,32
  inhibition at 0.008 µM: -2.11%
[2]; read-out: percent inhibition of TNFα secretion, PMA/ionomycin, Prednisolone 0.008 μM, Norclozapine μM r5-r13: 0,0.21,0.41,0.83,1.7,3.3,6.6,13,27
  inhibition at 0.008 µM: 17%
[2]; read-out: percent inhibition of TNFα secretion, PMA/ionomycin, Prednisolone 0.008 μM, Nortriptyline μM r5-r13: 0,0.52,1,2.1,4.2,8.3,17,33,67
  inhibition at 0.008 µM: 9.54%
[2]; read-out: percent inhibition of TNFα secretion, PMA/ionomycin, Prednisolone 0.5 μM, Amoxapine μM r5-r13: 0,0.25,0.5,1,2,4,8,16,32
  inhibition at 0.5 µM: 25%
[2]; read-out: percent inhibition of TNFα secretion, PMA/ionomycin, Prednisolone 0.5 μM, Norclozapine μM r5-r13: 0,0.21,0.41,0.83,1.7,3.3,6.6,13,27
  inhibition at 0.5 µM: 44%
[2]; read-out: percent inhibition of TNFα secretion, PMA/ionomycin, Prednisolone 0.5 μM, Nortriptyline μM r5-r13: 0,0.52,1,2.1,4.2,8.3,17,33,67
  inhibition at 0.5 µM: 29.2%
[2]; read-out: percent inhibition of TNFα secretion, PMA/ionomycin, Prednisolone 1 μM, Amoxapine μM r5-r13: 0,0.25,0.5,1,2,4,8,16,32
  inhibition at 1 µM: 29.5%
[2]; read-out: percent inhibition of TNFα secretion, PMA/ionomycin, Prednisolone 1 μM, Nortriptyline μM r5-r13: 0,0.52,1,2.1,4.2,8.3,17,33,67
  inhibition at 1 µM: 38.5%
[2]; read-out: percent inhibition of TNFα secretion, Prednisolone 0.008 μM, Clomipramine μM 0, 0.45, 0.89, 1.8, 3.6, 7.1, 14, 28, 57
  inhibition at 0.008 µM: 7.57%
[2]; read-out: percent inhibition of TNFα secretion, Prednisolone 0.008 μM, Desipramine μM 0, 0.5, 1, 2, 4, 8, 16, 32, 64
  inhibition at 0.008 µM: 3.11%
[2]; read-out: percent inhibition of TNFα secretion, Prednisolone 0.008 μM, Fluoxetine μM by grid row: r5 0, r6 0.23, r7 0.45, r8 0.9, r9 1.8, r10 3.6, r11 7.2, r12 14, r13 29
  inhibition at 0.008 µM: 6.63%
[2]; read-out: percent inhibition of TNFα secretion, Prednisolone 0.008 μM, Loxapine μM 0, 0.35, 0.7, 1.4, 2.8, 5.6, 11, 22, 45
  inhibition at 0.008 µM: 3.36%
[2]; read-out: percent inhibition of TNFα secretion, Prednisolone 10 nM, Amitriptyline nM: 0, 50, 199, 796, 3186, 13000
  inhibition at 0.01 µM: -1.26%
[2]; read-out: percent inhibition of TNFα secretion, Prednisolone 10 nM, Amoxapine nM: 0, 12, 50, 199, 797, 3187
  inhibition at 0.01 µM: 1.28%
[2]; read-out: percent inhibition of TNFα secretion, Prednisolone 10 nM, Clomipramine nM: 0, 45, 178, 712, 2848, 11000
  inhibition at 0.01 µM: 0.29%
[2]; read-out: percent inhibition of TNFα secretion, Prednisolone 42 nM, Amitriptyline nM: 0, 50, 199, 796, 3186, 13000
  inhibition at […]: 7.27%
[2]; read-out: percent inhibition of TNFα secretion, Prednisolone 42 nM, Amoxapine nM: 0, 12, 50, 199, 797, 3187
  inhibition at […]: 7.71%
[2]; read-out: percent inhibition of TNFα secretion, Prednisolone 42 nM, Clomipramine nM: 0, 45, 178, 712, 2848, 11000
  inhibition at […]: 6.83%
[2]; read-out: percent inhibition of TNFα secretion, Prednisolone 0.5 μM, Clomipramine μM 0, 0.45, 0.89, 1.8, 3.6, 7.1, 14, 28, 57
  inhibition at 0.5 µM: 33.4%
[2]; read-out: percent inhibition of TNFα secretion, Prednisolone 0.5 μM, Desipramine μM 0, 0.5, 1, 2, 4, 8, 16, 32, 64
  inhibition at 0.5 µM: 32.6%
[2]; read-out: percent inhibition of TNFα secretion, Prednisolone 0.5 μM, Fluoxetine μM by grid row: r5 0, r6 0.23, r7 0.45, r8 0.9, r9 1.8, r10 3.6, r11 7.2, r12 14, r13 29
  inhibition at 0.5 µM: 39.3%
[2]; read-out: percent inhibition of TNFα secretion, Prednisolone 0.5 μM, Loxapine μM 0, 0.35, 0.7, 1.4, 2.8, 5.6, 11, 22, 45
  inhibition at 0.5 µM: 31%
[2]; read-out: percent inhibition of TNFα secretion, Prednisolone 1 μM, Clomipramine μM 0, 0.45, 0.89, 1.8, 3.6, 7.1, 14, 28, 57
  inhibition at 1 µM: 37.5%
[2]; read-out: percent inhibition of TNFα secretion, Prednisolone 1 μM, Desipramine μM 0, 0.5, 1, 2, 4, 8, 16, 32, 64
  inhibition at 1 µM: 35.2%
[2]; read-out: percent inhibition of TNFα secretion, Prednisolone 1 μM, Fluoxetine μM by grid row: r5 0, r6 0.23, r7 0.45, r8 0.9, r9 1.8, r10 3.6, r11 7.2, r12 14, r13 29
  inhibition at 1 µM: 30.6%
[2]; read-out: percent inhibition of TNFα secretion, Prednisolone 1 μM, Loxapine μM 0, 0.35, 0.7, 1.4, 2.8, 5.6, 11, 22, 45
  inhibition at 1 µM: 34.8%
[2]; read-out: percent inhibition of TNFα secretion, Prednisolone 2656 nM, Amitriptyline nM: 0, 50, 199, 796, 3186, 13000
  inhibition at 2.656 µM: 41.6%
[2]; read-out: percent inhibition of TNFα secretion, Prednisolone 2656 nM, Amoxapine nM: 0, 12, 50, 199, 797, 3187
  inhibition at 2.656 µM: 39%
[2]; read-out: percent inhibition of TNFα secretion, Prednisolone 2656 nM, Clomipramine nM: 0, 45, 178, 712, 2848, 11000
  inhibition at 2.656 µM: 42.1%
